A short description of data set [1]: Stability of L-DOPA ethyl ester forms. In kind it is physicochemical. The text has this:
(§1) Great Britain Patent No. 1,364,505 and corresponding U.S. Pat. No. 3,803,120, assigned to Hoffman-La Roche, describe the synthesis of L-DOPA ethyl ester hydrochloride salt and free base. This compound is used as an intermediate in the synthesis of other compounds and is not characterized in the patent specification. […] This material cannot be used for pharmaceutical compositions. Likewise, the L-DOPA ethyl ester free base as prepared in these two patents is impure and not stable and thus also is not suitable for pharmaceutical compositions. At best it can be used as a synthetic intermediate for further chemical synthesis as described in the cited patents.
(§2) L-DOPA ethyl ester as free base obtained by this process is stable, non-hygroscopic, and crystalline. The LDEE free base has a particle size from 5 to 300 micron and an average particle size of 80 micron.

The nature of data set [2]: Hygroscopicity of L-DOPA ethyl ester forms. It counts as physicochemical.
Excerpt: as §1, §2

Data set [3] in a line: Particle size of LDEE free base. In kind it is physicochemical. Particulars: free base obtained by this process.
Excerpt: as §2

For data set [4] the following is noted: composition produced according to the Milman process (U.S. Pat. No. 5,354,885); 6 months at 40° C.; cited from earlier work.
[5] abbreviates: material synthesized by the methods of GB 1,364,505 / U.S. Pat. No. 3,803,120.
Setting [6] is: free base obtained by this process.

SMILES strings stand for the structures.

As to `CCOC(=O)[C@@H](N)Cc1ccc(O)c(O)c1.Cl` [L-DOPA ethyl ester hydrochloride salt, L-DOPA ethyl ester hydrochloride, reference compound], the stability result in data set [1] (setting [5]) is listed as “not stable”. The hygroscopicity entry in data set [2] (setting [5]) was “hygroscopic”.

On to `CCOC(=O)[C@@H](N)Cc1ccc(O)c(O)c1` [L-DOPA ethyl ester], for which the stability result in data set [1] (setting [6]) is recorded as “stable”; in data set [1] (setting [5]), “not stable”. Moreover, in data set [2] (setting [6]), the hygroscopicity entry is “non-hygroscopic”. The same molecule had an average particle size in data set [3] of 80 micron. The “L-DOPA ethyl ester remaining after incubation” value in data set [4] is on record as “at least 97 % by weight”.
